Experimental data as given in patent US20260374809A1, “COMPOUNDS USEFUL FOR THE TREATMENT AND/OR CARE OF THE SKIN, HAIR, NAILS AND/OR MUCOUS MEMBRANES” (Lubrizol Advanced Materials, Inc., priority 2022, published 2026).
Where a SMILES comes first, the peptide text is derived from it.

Experiments:
[1] = system: Musclebind Like Protein 1 (MBNL1); test: MBNL1 protein expression in human skeletal muscle cells (hSKMC), HTRF; type: cell-based; conditions: 0.5 mg/ml, 48 hours, relative to basal control
Experimental: Musclebind Like Protein 1 (MBNL1) in Human Skeletal Muscle Cells (hSKMC)
An increase of MBNL-1 in muscle cells helps maintaining the tone of facial skin muscles. Thus, compounds able to enhance MBNL-1 can be used as a good approach for cosmetic treatment of sagging facial appearance.
Human skeletal muscle cells (hSKMC) were cultured at 100,000 cells in T25 flasks with growth medium. After 4 days, cells reached around 80% of confluency and were seeded at 150,000 cells per well in 12-well plates in growth medium. Cells were incubated for 72 hours and then they were changed to differentiation medium and incubated during 48 hours. At the end of this period, cells were treated with defined peptides (0.5 mg/ml) and with medium alone for control conditions during 48 hours in differentiation medium. Cells were also treated with 2 mM of ketoprofen as a positive control.
After the incubation period, cells were lysed and frozen at −80 °C. For total protein quantification protein extract was measured by Bicinchoninic Acid (BCA) method. MBNL1 protein detection was performed by Homogeneous Time Resolved Fluorescence (HTRF) technology. Normalization of MBNL1 levels were performed by total protein quantification for each condition. Results are expressed as a relative MBNL1 protein level respect to control conditions. At least 3 replicates were carried out per condition.

[2] = system: Human dermal fibroblast (HDF); test: Collagen contraction assay with human dermal fibroblasts in collagen gel; type: cell-based; conditions: 0.01 mg/ml, 24 h post detachment, without MES; basal control = 100.0, MES = 144.4
Excerpt: It is known that a remarkable change in the mechanical properties of the skin with aging is due to reduced contractile capacity as well as reduced migration activity of fibroblasts. Healthy fibroblasts induce contraction of the collagen network through physical interactions with collagen fibers. The collagen network is essential for maintaining the firmness of the skin. The collagen contraction assay is a well-known experimental approach to measuring the cell-induced contraction of the extracellular matrix. In this assay, the capacity of fibroblasts, embedded in a collagen-based gel, to reduce the gel diameter is evaluated.
By improving the contractile forces, the mechanical tension can be improved, which can be associated to “lifting” effect at the scale of fibroblasts.
The microcurrent system was built by coupling gold electrodes (in order to avoid medium oxidation leading to cell death when current goes through) to opposite sides of 60 mm Petri dishes (separated by 4 cm). When a voltage is applied, an electric field generates between opposite positive and negative poles and current passes through the culture. During the stimulation time (2 hours), each of the 60 mm Petri dishes is connected to a voltage source that allows regulating the amount of current that passes through each of them. For these experiments, a […] current (which corresponds to approx. 67 mV/mm) was used.
Human dermal fibroblast (HDF) cell culture and expansion: Cells were thawed in T75 flasks and the growth medium was changed every 2 days of cell culture. After 7 days, cells were expanded to obtain a total amount of 7×10^6 cells to be used in the experiments.
Once finished the expansion, cultures are trypsinized and seeded at 3×10^5 cells/60 mm Petri up to a total of 10 dishes per replicate. These ten dishes correspond to one experiment (Control/-MES vs+MES) at a specific concentration. Peptide treatment was performed at 0.01 mg/ml.
After an overnight (O/N) incubation to allow cell attachment, each Petri dish is treated at the corresponding concentration with 4 ml of specific medium for a total of 24 hours in both conditions (without MES and with MES). Peptide treatment on the dishes that are not stimulated with microcurrent is initiated 2 hours in advance, and their passage into 3D cultures occurs at the same time as the microcurrent stimulation of the other dishes. […]
Each 3D culture is prepared by mixing collagen solution with the culture medium corresponding to each of the conditions (without peptide or with peptide). […] Images of collagen gel diameter are taken of each well at 24 hours post detachment and analyzed by ImageJ. […]
[formula] • An initial area is stablished. […] Area t=0 gel […]1.86 cm^2 (Area of a well in a 24-well plate) • Quantification of Area at t=x; Ax. […]

EDA-Fn = test: Myofibroblast marker EDA-Fn by immunofluorescence; type: cell-based, human; conditions: 0.01 mg/ml; basal control = 100.0, MES = 135.7
Experimental: EDA-Fn is an isoform of fibronectin, which serves as marker for the presence of myofibroblasts.
After the experimental protocol described in EXAMPLE 8, recovery of the cells was performed by the extraction of cells from the 3D culture and their reseeding on glass coverslips. To recover cells, the collagen hydrogel was digested in agitation at 37 °C with a collagenase solution. After the digestion, cycles of centrifugation and washing were performed to eliminate collagen debris. Then, cells were seeded on coverslips in replicated as in the conditions of the 3D cultures of EXAMPLE 8. For future fluorescence analysis, cells were seeded on glass coverslips previously coated with collagen at a density of 3×10^5 fibroblasts/cm^2, let attach overnight and fixed with 4% PFA.
Glass coverslips were used to perform EDA-Fn immunofluorescence, a marker of myofibroblasts. EDA-Fn immunofluorescence was performed in control samples (with or without MES) and after peptide treatment (PEP-1 0.01 mg/ml). Briefly, cells attached to coverslips were permeabilized by 0.5% Triton X-100 in PBS for 10 minutes at room temperature. Then, blocking solution (4% BSA in PBS) was added for 2 hours. […] Finally, green fluorescence intensity was quantified in Operetta (PerkinElmer) for each condition and normalized by the number of nuclei. […]

**Q.** How did the “% MBNL1 vs Basal control” value [1] turn out when `CC(C)C[C@H](N)C(=O)N1CCC[C@H]1C(=O)N[C@H](C(=O)N[C@H](C(=O)O)[C@@H](C)O)C(C)C` [PEP-1, H-Leu-Pro-Val-Thr-OH] (H-LPVT-OH) was run?
**A.** 213.0%

**Q.** And the “Collagen contraction, MEAN ± SEM” value [2]?
**A.** 137.5 ± 7.8%

**Q.** And the “Fold induction of EDA-Fn as myofibroblast marker, % Fold induction (FI) MEAN ± SEM” value (EDA-Fn)?
**A.** 172.3 ± 14.36%
